{
  "source": "PubChem BioAssay (NCI)",
  "tested_on": "P388/ADR leukemia",
  "test": "NCI tumour cell line growth inhibition, 48 h",
  "note": "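Five concentrations, 48 hours, 96-well plates. The concentration for full growth arrest is given as TGI.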",
  "data": [
    {"smiles": "CO[C@@]12[C@H](COC(N)=O)C3=C(C(=O)C(C)=C(N)C3=O)N1C[C@@H]1N[C@@H]12", "values": [
      {"measurement": "TGI", "value": 16, "unit": "µM"}
    ]}
  ]
}
